Literature values in patent US20050180940A1, “Protect against hair loss” (priority 2004, published 2005).

Tested on: common male-pattern baldness
Details: two daily topical applications, person, after 3-4 weeks

sucralfate
Effect on common male-pattern baldness (hair appearance): appearance of hair in the otherwise bald lateral-frontal areas in the scalp
